In patent US6761898B1, “Combination composition in the form of nutritional supplement or pharmaceutical composition for the prevention and therapeutical treatment of degenerative or inflammatory articular disorders” (Sigma-Tau Industrie Farmaceutiche Riunite S.p.A., priority 1998, dated 2004):

How the values were obtained:
[1] = system: Type II collagen arthritis in mice; assay: Type II collagen arthritis tests; assay type: in vivo; settings: injected from day one after collagen injection to end of sixth week, L-carnitine 50 and 100 mg/kg, glucosamine 100 and 200 mg/kg, chondroitin sulphate 50 and 100 mg/kg
Protocol: Type II collagen arthritis was induced in mice according to the technique described by Trentham (Trentham D. R., Townes A. S., Kang A. H., J. Exp. Med., 146, 857, 1977). One group of mice was immunised by means of intradermal injections of natural collagen emulsified in complete Freund's adjuvant (Difco Labs., Detroit, U.S.A.) at the base of the tail. Three weeks later these animals were re-injected intraperitoneally with the same dose of emulsified collagen. L-carnitine (50 mg/kg and 100 mg/kg), glucosamine (100 mg/kg and 200 mg/kg) and chondroitin sulphate (50 mg/kg and 100 mg/kg) were injected alone or in combination from day one after the collagen injection up to the end of the sixth week. One group of animals (control) received no treatment. The assessment of the severity of the oedema was done according to its intensity with scores ranging from 1 to 4. […] When L-carnitine was combined with either glucosamine or with chondroitin sulphate an approximately 50% reduction of arthrosis was obtained.

[2] = system: carragenin-induced oedema in the rat; assay: Carragenin oedema tests; assay type: in vivo; settings: for effect on severity of the carragenin-induced oedema: substance alone, 50, 100 and 200 mg/kg one hour prior to carragenin
Protocol: Carragenin oedema was induced in the rat by injection of 0.1 ml of a 1% carragenin solution (Sigma Chemical) in the subplantar region of the rat's right paw. The volume of the paw was measured by means of a mercury plethysmograph one hour later and over the 5-hour period following carragenin injection.
L-carnitine, glucosamine and chondroitin sulphate were administered one hour prior to carragenin injection, both alone and in combination at doses of 50, 100 and 200 mg/kg of these compounds.

[3] = dose 100 mg/kg (each substance), 2 hours
[4] = dose 100 mg/kg (each substance), 3 hours
[5] = dose 100 mg/kg (each substance), 4 hours
[6] = dose 200 mg/kg (each substance), 1 hour
[7] = dose 200 mg/kg (each substance), 2 hours
[8] = dose 200 mg/kg (each substance), 3 hours
[9] = dose 200 mg/kg (each substance), 4 hours

N[C@H]1C(O)O[C@H](CO)[C@@H](O)[C@@H]1O (some centres unmarked) [Glucosamine, glucosamine]
inhibitory effect on the development of the typical signs of arthritis [1]: neither L-carnitine, glucosamine nor chondroitin sulphate when administered alone had any inhibitory effect | % Reduction of oedema at various hours after carragenin injection [2, 3]: 5 ± 0.3% | % Reduction of oedema at various hours after carragenin injection [2, 4]: 5 ± 0.5% | % Reduction of oedema at various hours after carragenin injection [2, 5]: 5 ± 0.6% | % Reduction of oedema at various hours after carragenin injection [2, 6]: 5 ± 0.2% | % Reduction of oedema at various hours after carragenin injection [2, 7]: 10 ± 0.9% | % Reduction of oedema at various hours after carragenin injection [2, 8]: 10 ± 1.1% | % Reduction of oedema at various hours after carragenin injection [2, 9]: 5 ± 0.5% | effect on severity of the carragenin-induced oedema [2]: failed to modify the severity

C[N+](C)(C)C[C@H](O)CC(=O)[O-] [L-carnitine]
inhibitory effect on the development of the typical signs of arthritis [1]: neither L-carnitine, glucosamine nor chondroitin sulphate when administered alone had any inhibitory effect | % Reduction of oedema at various hours after carragenin injection [2, 7]: 10 ± 0.2% | % Reduction of oedema at various hours after carragenin injection [2, 8]: 5 ± 0.3% | effect on severity of the carragenin-induced oedema [2]: failed to modify the severity

chondroitin sulphate
inhibitory effect on the development of the typical signs of arthritis [1]: neither L-carnitine, glucosamine nor chondroitin sulphate when administered alone had any inhibitory effect | % Reduction of oedema at various hours after carragenin injection ([2]; dose 100 mg/kg (each substance), 1 hour): 10 ± 0.3% | % Reduction of oedema at various hours after carragenin injection [2, 3]: 10 ± 0.8% | % Reduction of oedema at various hours after carragenin injection [2, 4]: 5 ± 0.4% | % Reduction of oedema at various hours after carragenin injection [2, 5]: 5 ± 0.1% | % Reduction of oedema at various hours after carragenin injection [2, 6]: 10 ± 1.9% | % Reduction of oedema at various hours after carragenin injection [2, 7]: 15 ± 1.1% | % Reduction of oedema at various hours after carragenin injection [2, 8]: 20 ± 1.8% | % Reduction of oedema at various hours after carragenin injection [2, 9]: 10 ± 1.2% | effect on severity of the carragenin-induced oedema [2]: failed to modify the severity
